Data published in patent publication US4879370A, “Glutathione delivery system” (Cornell Research Foundation, Inc., priority 1985, dated 1989).

Legend:
[1] = system: GSH level in the liver and in the kidney; test: GSH level in liver and kidney of starved mice, time course (Example 6); assay type: in vivo; settings: mice starved 24 hours, 10 mmol/kg i.p., 2 to 3 hours after the administration
Procedure: The test compound was dissolved in sterile water to give a test solution. Groups of 3 mice, each having a body weight of 20 to 25 g, were starved over a period of 24 hours and treated intraperitoneally with a dose of 10 mmol/kg of the test compound. Mice were dissected by every two hours, and the liver and kidney were taken out. GSH analysis was performed on each of the organs.

[2] = system: mice treated with lethal dose of acetaminophen; test: Survival of starved mice after lethal dose of acetaminophen (Example 8); assay type: in vivo; settings: acetaminophen 5 mmol/kg i.p., test compound 10 mmol/kg one hour later, 15 mice
Source text: Starved mice were intraperitoneally treated with 5 mmol/kg (lethal dose) of acetaminophen and, one hour later, with 10 mmol/kg of the test compound.

[3] = system: glutathione levels of the liver and kidney; test: Liver and kidney glutathione levels of mice pretreated with buthionine sulfoximine (Example 2); assay type: in vivo; settings: 2 mmol/kg buthionine sulfoximine
Source text: Controls were again given saline, with tissue levels of GSH being determined at the indicated intervals. Values are means±S.D., using groups of 3 mice each.

[4] = system: glutathione levels of the liver and kidney; test: Liver and kidney glutathione levels of fasted mice given glutathione ester or glutathione (Example 1, Comparative Example 1); assay type: in vivo
Procedure: A solution of the glutathione ester was prepared in aseptic water. […] At intervals of 2 hours, as shown in FIGS. 1(a) and (b), the animals were decapitated and the liver and kidney tissues were removed and analyzed for glutathione. Using groups of 3 mice each, values are given as means±S.D.

[5] = system: mice given a lethal dose of acetaminophen; settings: acetaminophen 5 mmole per kilogram, ester 10 mmole per kilogram 1 hour later, 15 mice
[6] = mice fasted 24 hours, intraperitoneal 10 millimoles per kilogram, 2 hours after administration, vs 0.15M NaCl controls

Row | SMILES | GSH level in the kidney [1] | GSH level in the liver [1] | survival after 7 days [2] | further results
1 | CC(C)OC(=O)CNC(=O)[C@H](CS)NC(=O)CC[C@H](N)C(=O)O [GSH monoisopropyl ester, Isopropyl γ-L-glutamyl-L-cysteinylglycinate] | substantial elevation | substantial elevation | survived and were recovered clearly after 7 days | –
2 | CCCCS(=N)(=O)CCC(N)C(=O)O (centres unmarked) [buthionine sulfoximine] | – | – | – | glutathione levels of the liver and kidney after the inhibitor [3]: decreased to a very low value
3 | CCOC(=O)CNC(=O)[C@H](CS)NC(=O)CC[C@H](N)C(=O)O [glutathione monoethyl ester, L-γ-Glutamyl-L Cysteinyl Glycyl Ethyl Ester] | – | – | – | effects on liver and kidney glutathione levels compared with glutathione monomethyl ester ([4]; fasted mice, as Example 1): about the same
4 | CCCCCCOC(=O)CNC(=O)[C@H](CS)NC(=O)CC[C@H](N)C(=O)O [GSH mono-n-hexyl ester, n-Hexyl γ-L-glutamyl-L-cysteinylglycinate] | substantial elevation | substantial elevation | survived and were recovered clearly after 7 days | –
5 | COC(=O)CNC(=O)[C@H](CS)NC(=O)CC[C@H](N)C(=O)O [glutathione monomethyl ester] | – | – | – | glutathione level of the kidney [4, 6]: increased substantially; glutathione level of the liver [4, 6]: increased substantially; fatalities / survival at 7 days [5]: no fatalities were observed
6 | N[C@@H](CCC(=O)N[C@@H](CS)C(=O)NCC(=O)O)C(=O)O [GSH, L-γ-glutamyl-L-cysteinyl-glycine, reference compound] | slight elevation | No elevation | – | glutathione level of the kidney [4, 6]: only a slight effect
7 | CC(C)COC(=O)CNC(=O)[C@H](CS)NC(=O)CC[C@H](N)C(=O)O [GSH monoisobutyl ester, Isobutyl γ-L-glutamyl-L-cysteinylglycinate] | substantial elevation | substantial elevation | survived and were recovered clearly after 7 days | –
